From patent publication US20240122926A1, “APELIN RECEPTOR MODULATORS FOR TREATING MUSCLE CONDITIONS” (priority 2022, published 2024) come the findings set out here.

Each structure is given as a SMILES string. pEC50: −log10 of the molar value. Where two headings read alike, the source gives them in different places. Bounds are passed on as bounds.

For one series, the system named is healthy adult subjects. The series is described as follows: Phase 1 study Part A (SAD), safety and tolerability. It counts as in vivo, human. Particulars: SAD cohorts. The method, then:
Safety data is summarized using descriptive statistics (number of subjects, mean, median, standard deviation, minimum, and maximum) for continuous variables and using frequency and percentages for discrete variables.
Adverse events are coded using the Medical Dictionary for Regulatory Activities. The number of events, incidence, and percentage of TEAEs are calculated overall by system organ class, preferred term, and treatment group for each cohort and treatment group. The number and percentage of subjects with TEAEs are further summarized by severity and relationship to study drug. AEs related to study drug, AEs leading to withdrawal, SAEs, and deaths are also similarly summarized and/or listed in a similar manner.

A further series concerns the target T1, mouse APLNR (Mus musculus, UniProt Q9WV08).
T1 construct: host or cells: CHO cells
T1 sequence (Q9WV08 1-377): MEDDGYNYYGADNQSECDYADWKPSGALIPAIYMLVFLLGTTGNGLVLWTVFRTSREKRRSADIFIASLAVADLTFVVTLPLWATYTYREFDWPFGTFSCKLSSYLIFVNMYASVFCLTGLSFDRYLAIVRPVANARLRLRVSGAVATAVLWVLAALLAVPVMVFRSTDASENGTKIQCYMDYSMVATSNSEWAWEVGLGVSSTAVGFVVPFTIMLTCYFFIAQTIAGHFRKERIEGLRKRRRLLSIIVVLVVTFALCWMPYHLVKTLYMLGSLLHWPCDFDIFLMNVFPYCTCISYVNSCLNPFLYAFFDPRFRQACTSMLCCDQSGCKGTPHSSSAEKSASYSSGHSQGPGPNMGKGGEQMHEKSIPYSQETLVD
The series is described as follows: PathHunter β-arrestin eXpress GPCR assay, CHO cells stably expressing mouse APLNR. The note with it: for Emax: CHO. The class given is cell-based. The method, then:
APLNR activation was determined by β-arrestin recruitment as measured by the ProLink […] complementation technology (93-0001, DiscoveRx). In brief, CHO cells stably expressing APLNR were seeded and incubated overnight at 37° C. The compounds were tested in duplicate and diluted to obtain a 10-point curve with 3-fold serial dilutions (<1% DMSO). The compounds and cells were incubated for 3 hours at 37° C. After the incubation period the detection reagents were added and the plate chemiluminescent signal was measured after 30 min at RT.

For series [1], the system named is healthy volunteers aged ≥65 years. The series can be described thus: Phase 1b bed rest study, muscle protein synthesis rate (heavy water, vastus lateralis microbiopsy). It counts as in vivo, human. The method, then: Heavy Water Consumption and Assessments. For subjects in Part B only, heavy water, deuterated H2O (D2O), is provided to subjects to drink during the pre-treatment and treatment periods before breakfast, in the afternoon, and after fasting overnight, at timepoints described previously. Blood samples (10 mL) and urine samples are collected at timepoints described previously to assess skeletal muscle protein fractional synthetic rate (FSR).
Skeletal muscle protein synthesis rate (%/time) for individual muscle proteins are compared first as a linear contrast including all doses versus placebo and then as individual dose comparisons to placebo.
(§1) One day before (baseline, D-1) and 5 (D5) and 10 (D10) days after initiation of bed rest, key muscle atrophy endpoints were measured: thigh circumference; cross-sectional area (CSA) and A-P diameter of vastus lateralis (ultrasound); ultrasound muscle quality grade, an index that quantifies fatty degeneration in muscle (ultrasound echo density); and muscle protein synthesis rate (biopsy). Parameters measured during the 10-day bed rest period include thigh circumference, muscle size, muscle quality (e.g., fatty degeneration), and muscle protein synthetic rate.

Series [2] has the same test system. The series is described as follows: Phase 1b bed rest study Part B (MD), limb circumference and ultrasound muscle dimensions. It counts as in vivo, human. The method, then:
In each of the 3 cohorts in Part B, 30 total subjects are enrolled to receive treatment in either Cohort 1A, Cohort 1B, or Cohort 1C. Cohort 1A includes 10 subjects who all receive placebo NS over a 1 hour infusion for 10 days on Days 1 through Day 10. […] Patients are at bed rest for the entire 10-day duration of treatment.
Ultrasound images were collected during the following study visits: Day −1 (baseline), Day 6 (pre-dose), and day 11 (end of treatment). Ultrasounds were performed of both the vastus lateralis and gastroenemius to measure cross-sectional area, color flow doppler, antero-posterior (AP) diameter, and echo density. Muscle circumference was also measured. Ultrasound imaging was conducted by the same operator throughout the study for all subjects. Ultrasound readings were done by the same reader throughout the study for all subjects. […] The leg measured (right vs. left) and leg location (medial vs. lateral) remained consistent for all ultrasounds.
Muscle circumference was measured in centimeters (cm) using a measuring tape and recorded on the ultrasound worksheet at the time of imaging.
The ultrasound images were collected before conducting the skeletal muscle micro-biopsy. Prior to testing, subjects were instructed to wear shorts on testing day to avoid compression of the upper leg musculature and to expose the upper portion of the thigh. Subjects were required to lay supine on an examination table with both legs fully extended for a minimum of 5 minutes to allow for fluid shifts to occur. Each subject was instructed to lay on their non-dominant side to obtain skeletal muscle ultrasound images of the vastus lateralis and gastrocnemius in the dominant leg. Subjects were positioned with their legs on top of one another and slightly bent at the knee. Ultrasound images of the vastus lateralis will be captured at 50% of the straight-line distance from the greater trochanter and the lateral epicondyle of the femur.
To ensure proper probe placement and consistent image capture location, a dotted line was drawn transversely and longitudinally along the surface of the skin from the aforementioned location. All measures of muscle morphology were obtained using a B-mode, 12-MHz linear probe US (General Electric vivid E9) to provide acoustic contact without depressing the dermal layer of the skin. Longitudinal B-mode and transverse field of view (FOV) images were acquired during each exam and analyzed. Ultrasound settings remained fixed for examination of each subject: image gain was set at 50 decibels (dB), dynamic range was set at 72, and image depth was set at 5 cm. Three panoramic transverse images (PTI) were captured in the transverse plane, perpendicular to the long axis of the muscle. These images utilized the extended-field-of-view ultrasonography in order to include entire area of the vastus lateralis in a single panoramic image.
Additionally, three single longitudinal images (SLI) were captured in the longitudinal plane, parallel to the long axis of the muscle. […] This same technique was applied to ultrasound of the gastrocnemius. Either the medial head or lateral head of the gastrocnemius was used for ultrasound evaluation, but not both. The same head was used for all gastrocnemius ultrasounds throughout the study.
as §1

The mark [3] stands for this setting: 240 mg IV once daily, 10 days bed rest.

`COc1cccc(OC)c1-n1c(NS(=O)(=O)[C@@H](C)[C@H](C)c2ncc(C)cn2)nnc1-c1cncc(C)c1` [BGE-105, (2S,3R)—N-(4-(2,6-dimethoxyphenyl)-5-(5-methyl-3-pyridinyl)-4H-1,2,4-triazol-3-yl)-3-(5-methyl-2-pyrimidinyl)-2-butanesulfonamide]: in the series on healthy adult subjects, the serious adverse events result is “no serious adverse events”. In addition, in the series with healthy adult subjects (all doses including 240 mg/1440 mg), the tolerability result is listed as “well tolerated”. In addition, the pEC50 (in general, −log10 of the EC50, conventionally taken in molar units) at mouse APLNR was 9.10. The Emax (usually the greatest response seen or fitted, relative to the assay's reference) at mouse APLNR (read-out: maximum effect (Emax)) came out at 65%. In addition, on mouse APLNR (read-out: maximum effect (Emax), replication), the Emax was found to be 60%. Moreover, in series [1] (BGE-105 treated patients with elevated rate, 10 days bed rest), the “mean normalized fraction synthetic rate, range” value was 0.18-2.2. For the same compound, the “number of patients (out of 11) with elevated rate of muscle protein synthesis” value in series [1] (after 10 days of bed rest) was 8. The “decrease in the synthetic rate of muscle myofibril proteins (FSR/day) from baseline” value in series [1] (vastus lateralis (placebo 58%)) was found to be 36%. For the same compound, in series [2] (setting [3]), the “reduction in loss of vastus lateralis cross-sectional area vs placebo” value was above 50% and the “reduction in loss of vastus lateralis muscle thickness vs placebo” value was found to be 75%. Also, the “decrease in gastrocnemius diameter, mean percent change from baseline” value in series [2] (10 days of bed rest (placebo 10.982%)) is listed as 2.942. In series [2] (10 days of bed rest (placebo 15.72%)), the “decrease in gastrocnemius cross-sectional area, mean percent change from baseline” value is 7.758%. For the same compound, the “improvement in muscle dimension vs placebo” value in series [2] (Cohort 1B vs Cohort 1A) was around 75%. In addition, in series [2] (female subjects (placebo 5.486%)), the “decrease in calf circumference” value amounted to 1.166%. Besides, the “decrease in thigh circumference” value in series [2] (female subjects (placebo 6.06%)) is reported as 1.674%. Further, the “decrease in gastrocnemius cross sectional area” value in series [2] (female subjects (placebo 15.32%)) is on record as 5.558%. Besides, the “decrease in vastus lateralis cross sectional area” value in series [2] (female subjects (placebo 23.67%)) is on record as 9.676%. The “reduction in muscle loss from disuse atrophy” value in series [2] (healthy volunteer bed rest study) is “up to 75%”. Moreover, the “increase in thigh circumference after 10-day bed rest” value in series [2] (older patients, BGE-105 treated group (placebo 6.438% reduction)) is 0.8%. In addition, in series [2] (over 10 days of bed rest), the “number of subjects (out of 11) with fully preserved or increased thigh circumference” value was determined as 7 and the “percent of subjects with fully preserved or increased thigh circumference” value is recorded as 64%. Besides, the “decrease in muscle size measured by ultrasound” value in series [2] (treatment group (Cohort 1B) (placebo 21%)) stood at 5.664%.
